In patent US4218443A, “Polyether ionophores as antiobesity and hypotriglyceridemic agents” (Hoffmann-La Roche Inc., priority 1979, dated 1980):
Where two headings read alike, the source gives them in different places.

Tests used:
pancreatic lipase = target: T1, pancreatic lipase (Rattus norvegicus, UniProt P27657); experiment: In vitro pancreatic lipase screen ([14C]-triolein assay); format: biochemical; settings: read-out: Pancreatic Lipase Activity I50
T1 construct: stimulated to release pancreatic proteins by addition of 10^-5 M carbachol; from tissue; host or cells: pancreatic lobules of fasted Charles River female rats; released pancreatic juice, centrifuged
T1 sequence (P27657 17-465): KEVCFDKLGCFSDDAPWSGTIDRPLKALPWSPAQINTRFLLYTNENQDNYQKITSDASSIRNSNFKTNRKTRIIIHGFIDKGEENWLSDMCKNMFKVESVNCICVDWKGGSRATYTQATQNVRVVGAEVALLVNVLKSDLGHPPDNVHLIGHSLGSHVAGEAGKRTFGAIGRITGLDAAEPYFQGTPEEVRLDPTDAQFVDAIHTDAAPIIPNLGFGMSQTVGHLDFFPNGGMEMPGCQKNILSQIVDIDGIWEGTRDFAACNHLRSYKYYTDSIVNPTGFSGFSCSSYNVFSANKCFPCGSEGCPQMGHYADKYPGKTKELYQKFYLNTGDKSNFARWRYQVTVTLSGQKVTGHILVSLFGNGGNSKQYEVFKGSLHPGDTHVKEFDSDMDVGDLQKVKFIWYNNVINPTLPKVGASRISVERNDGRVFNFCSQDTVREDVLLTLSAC
Description: The method for assaying pacreatic lipase in vitro using [^14 C]-triolein was based on the method of Garfinkel and Schotz for lipoprotein lipase, [A. S. Garfinkel and M. C. Schotz (1972). […] Glycerol tri[1-^14 C]oleate (32 mM) was emulsified in 0.2 M Tris-HCl pH 8 containing 0.15 M NaCl, bovine serum albumin (15 mg/ml) and sodium taurocholate (1.4 mM) by sonication for three, one min intervals at 80 watts. Final assay volume was 1.0 ml. The reaction was initiated by the addition of enzyme and was allowed to proceed for 10 min. The reaction was linear for up to 20 min. The liberated free fatty acids were extracted into 0.1 M KOH and quantitated in a liquid scintillation counter using 2,5-bis-2-(5-tertbutylbenzoxazolyl)-tniophene (BBOT) scintillation fluid (Yorktown Research, South Hackensack, N.J.).
Ionophores were added to the above assay as solutions in either 90% ethanol or water, pH 8; 90% ethanol had no effect on the enzyme activity assayed by either method.

[1] = test system: fatty acid synthesis in isolated hepatocytes; experiment: In vitro fatty acid synthesis in isolated hepatocytes; format: cell-based, Charles River female rat; settings: for activity at 1 µM / activity at 5 µM / activity at 10 µM / activity at 100 µM / activity at 250 µM / activity at 500 µM / activity at 1000 µM / activity at 2000 µM: Rattus norvegicus, Hepatocyte, 1 h, pH 7.4; for activity at 1 µM: 0.001 mM; for activity at 5 µM: 0.005 mM; for activity at 10 µM: 0.010 mM; for activity at 100 µM: 0.100 mM; for activity at 250 µM: 0.250 mM; for activity at 500 µM: 0.5 mM; for activity at 2000 µM: 2.000 mM
Description: Hepatocytes were prepared from meal-fed Charles River female rats as described previously, [A. C. Sullivan, J. Triscari, J. G. Hamilton and J. A. Ontko (1977). Hypolipidemic activity of (-)-hydroxycitrate, Lipids, 12: 1-9]. Briefly, rats were anesthetized with Nembutal, livers were perfused in situ and hepatocytes were isolated in Krebs-Henseleit bicarbonate buffer, pH 7.4. Incubations with isolated hepatocytes were performed in triplicate at 37° C. Each incubation flask contained in a total volume of 2.1 ml, 10.5 mg cells (dry weight), 1 ml of Krebs-Henseleit buffer, pH 7.4, radioactive substrate (1 μCi [U-^14 C]alanine, 1 mCi^3 H2 O and 1 μmole alanine) and 0.3% glucose. The appropriate concentration of inhibitor was prepared in dimethylsulfoxide and added to the incubation flask. Dimethylsulfoxide had no effect on fatty acid synthesis. ^3 H2 O was used to determine the total rate of fatty acid synthesis independently of carbon precursors of acetyl CoA. [^14 C]alanine was used as an acetyl CoA precursor. Rates of fatty acid synthesis were determined as described previously, [A. C. Sullivan, J. Triscari, J. G. Hamilton and J. A. Ontko (1977). Hypolipidemic activity of (-)-hydroxycitrate, Lipids, 12: 1-9]. Data are expressed as nmoles ^3 H2 O or [^14 C]alanine converted into fatty acids per mg dry weight cells in 60 minutes.

[2] = read-out: Fatty Acid Synthesis 3H2O
[3] = read-out: Fatty Acid Synthesis [14C]alanine
[4] = 1.0 mM, read-out: Fatty Acid Synthesis 3H2O
[5] = 1.0 mM, read-out: Fatty Acid Synthesis [14C]alanine

CO[C@H]1CC[C@H](O[C@@H]2C[C@@H]([C@@H](C)/C=C(\C)C(=O)[C@H](C)C[C@H](C)C(=O)O)O[C@@]3(CC[C@@](C)([C@H]4CC[C@@H](C)[C@@]5(O[C@@H]([C@H]6O[C@@](O)(CO)[C@H](C)C[C@@H]6C)C[C@@H]5C)O4)O3)[C@@H]2C)O[C@@H]1C [A-130A (Lenoremycin)] was tested, and the IC50 (pancreatic lipase) was 150 µM.

CNc1ccc2oc(C[C@H]3O[C@@]4(CC[C@H]3C)O[C@H]([C@H](C)C(=O)c3ccc[nH]3)[C@H](C)C[C@H]4C)nc2c1C(=O)O [Calcimycin] was tested, and the “Fatty Acid Synthesis 3H2O” value ([1]; 1.0 mM) was 48 % of control and the “Fatty Acid Synthesis [14C]alanine” value ([1]; 1.0 mM) was 0 % of control.

Work on CC[C@@H](C(=O)[C@@H](C)[C@@H](O)[C@H](C)CCc1c(Cl)cc(C)c(O)c1C(=O)O)[C@H]1O[C@](CC)([C@H]2CC[C@](O)(CC)[C@H](C)O2)C[C@@H]1C [Chlorolasalocid] yielded an IC50 (pancreatic lipase) of 7000 µM.

Work on CCC(C(=O)O)C1CCC(C)C(C(C)C(O)C(C)C(=O)C(CC)C2OC3(C=CCC4(CCC(C)(C5CCC(O)(CC)C(C)O5)O4)O3)C(C)CC2C)O1 (stereo not drawn) [Deoxy-(0-8)-epi-17-salinomycin] yielded an IC50 (pancreatic lipase) of 600 µM.

CC[C@@H](C(=O)[C@@H](C)[C@@H](O)[C@H](C)CCc1c([N+](=O)[O-])cc(C)c(O)c1[N+](=O)[O-])[C@H]1O[C@](CC)([C@H]2CC[C@](O)(CC)[C@H](C)O2)C[C@@H]1C [Dinitrodescarboxylasalocid,Sodium] was tested, and the activity at 1 µM [1, 2] was 113%, the activity at 1 µM [1, 3] was 102% and the activity at 5 µM [1, 2] was 116%. The activity at 5 µM [1, 3] was 117%, the activity at 10 µM [1, 2] was 160% and the activity at 10 µM [1, 3] was 169%. The activity at 100 µM [1, 2] was 2%, the activity at 100 µM [1, 3] was 0% and the activity at 250 µM [1, 2] was 3%. It also gave an activity at 250 µM [1, 3] of 0%, an activity at 500 µM [1, 2] of 3% and an activity at 500 µM [1, 3] of 0%. The activity at 1000 µM [1, 4] was 4%, the activity at 1000 µM [1, 5] was 0% and the activity at 2000 µM [1, 2] was 7%. For the same compound, the activity at 2000 µM [1, 3] was 0%.

Compound CC[C@@H](C(=O)[C@@H](C)[C@@H](O)[C@H](C)CCc1c(I)cc(C)c(O)c1C(=O)O)[C@H]1O[C@](CC)([C@H]2CC[C@](O)(CC)[C@H](C)O2)C[C@@H]1C [Iodolasalocid] has an IC50 (pancreatic lipase) of 260 µM.

C[C@H](CCC(=O)O)C[C@H](C)C[C@H](C)C(=O)/C=C(\O)[C@H](C)C[C@H](C)C/C=C/[C@@H](C)[C@@H](O)[C@@H](C)[C@@H](O)C[C@@H]1CC[C@@](C)([C@H]2CC[C@@](C)([C@@H](C)O)O2)O1 [Ionomycin] gave an IC50 (pancreatic lipase) of 960 µM.

Compound CCC(C(=O)C(C)C(O)C(C)CCc1ccc(C)c(O)c1C(=O)O)C1OC(CC)(C2CCC(CC)(C(C)O)O2)CC1C (centres unmarked) [Isolasalocid A] has an IC50 (pancreatic lipase) of 390 µM.

With CC[C@@H](C(=O)[C@@H](C)[C@@H](O)[C@H](C)CCc1ccc(C)c(OC(=O)c2ccc(Br)cc2)c1C(=O)O)[C@H]1O[C@](CC)([C@H]2CC[C@](O)(CC)[C@H](C)O2)C[C@@H]1C [Lasalocid 4-bromo benzoate] the IC50 (pancreatic lipase) was 130 µM.

In the case of CC[C@@H](C(=O)[C@@H](C)[C@@H](O)[C@H](C)CCc1ccc(C)c(OC(C)=O)c1C(=O)O)[C@H]1O[C@](CC)([C@H]2CC[C@](O)(CC)[C@H](C)O2)C[C@@H]1C [Lasalocid Acetate], the IC50 (pancreatic lipase) is reported as 120 µM.

CCCCCCC(=O)Oc1c(C)ccc(CC[C@@H](C)[C@H](O)[C@H](C)C(=O)[C@H](CC)[C@H]2O[C@](CC)([C@H]3CC[C@](O)(CC)[C@H](C)O3)C[C@@H]2C)c1C(=O)O [Lasalocid Heptanoate] was tested, and the IC50 (pancreatic lipase) was 220 µM.

Work on CCCCCC(=O)Oc1c(C)ccc(CC[C@@H](C)[C@H](O)[C@H](C)C(=O)[C@H](CC)[C@H]2O[C@](CC)([C@H]3CC[C@](O)(CC)[C@H](C)O3)C[C@@H]2C)c1C(=O)O [Lasalocid Hexanoate] yielded an IC50 (pancreatic lipase) of 200 µM.

Compound CCCCCCCC(=O)Oc1c(C)ccc(CC[C@@H](C)[C@H](O)[C@H](C)C(=O)[C@H](CC)[C@H]2O[C@](CC)([C@H]3CC[C@](O)(CC)[C@H](C)O3)C[C@@H]2C)c1C(=O)O [Lasalocid Octanoate] has an IC50 (pancreatic lipase) of 110 µM.

With CCCCCCCCCCCCCCCCCC(=O)Oc1c(C)ccc(CC[C@@H](C)[C@H](O)[C@H](C)C(=O)[C@H](CC)[C@H]2O[C@](CC)([C@H]3CC[C@](O)(CC)[C@H](C)O3)C[C@@H]2C)c1C(=O)O [Lasalocid Stearate] the IC50 (pancreatic lipase) was 110 µM.

With CCC(C(=NOC)C(C)C(O)C(C)CCc1ccc(C)c(O)c1C(=O)O)C1OC(CC)(C2CCC(O)(CC)C(C)O2)CC1C (centres unmarked) [Lasalocid methoxime] the IC50 (pancreatic lipase) was 200 µM.

Work on CC[C@@H](C(=O)[C@@H](C)[C@@H](O)[C@H](C)CCc1ccc(C)c(O)c1C(=O)O)[C@H]1O[C@](CC)([C@H]2CC[C@](O)(CC)[C@H](C)O2)C[C@@H]1C [Lasalocid,Sodium] yielded an activity at 1 µM [1, 2] of 97%, an activity at 1 µM [1, 3] of 88% and an activity at 5 µM [1, 2] of 74%. The activity at 5 µM [1, 3] was 66%, the activity at 10 µM [1, 2] was 61% and the activity at 10 µM [1, 3] was 66%. It also gave an activity at 100 µM [1, 2] of 4%, an activity at 100 µM [1, 3] of 0% and an activity at 250 µM [1, 2] of 6%. The activity at 250 µM [1, 3] was 1%, the activity at 500 µM [1, 2] was 7% and the activity at 500 µM [1, 3] was 3%. For the same compound, the activity at 1000 µM [1, 4] was 11% and the activity at 1000 µM [1, 5] was 0%.

CC[C@@H](C(=O)[C@@H](C)[C@@H](O)[C@H](C)CCc1ccc(C)c(O)c1C(=O)O)[C@H]1O[C@](CC)([C@H]2CC[C@](O)(CC)[C@H](C)O2)C[C@@H]1C [Lasalocid] gave an IC50 (pancreatic lipase) of 100 µM.

CO[C@@H]1C[C@@H](C[C@H]2CC[C@H](C)[C@H]([C@@H](C)C(=O)O)O2)O[C@]2(O[C@](C)([C@H]3CC[C@@](C)([C@@H]4O[C@@H]([C@H]5O[C@@](O)(CO)[C@H](C)C[C@@H]5C)C[C@@H]4C)O3)C[C@H]2C)[C@@H]1C [Nigericin] showed an IC50 (pancreatic lipase) of 2500 µM.

With CC[C@@H](C(=O)[C@@H](C)[C@@H](O)[C@H](C)CCc1c([N+](=O)[O-])cc(C)c(O)c1C(=O)O)[C@H]1O[C@](CC)([C@H]2CC[C@](O)(CC)[C@H](C)O2)C[C@@H]1C [Nitrolasalocid] the IC50 (pancreatic lipase) was 1320 µM.

CC/C(=C\C=C\[C@@H]1C=C[C@@H]2[C@@H](CC)CC[C@H]2[C@@H]1C(=O)c1ccc[nH]1)[C@@H]1O[C@@H]([C@@H](C)C(=O)O)CC[C@@H]1C [X-14547A] was tested, and the IC50 (pancreatic lipase) was 700 µM.

Lysocellin showed an IC50 (pancreatic lipase) of 800 µM.
